According to patent publication US5981497A, “Utilization of sophorolipids as therapeutically active substances or cosmetic products, in particular for the treatment of the skin” (Institut Francais du Petrole, priority 1995, dated 1999):

Columns and labels:
[1] = in vitro; settings: keratinocyte culture
Protocol: A keratinocyte culture that was placed under conditions that promote the differentiation of cells was selected as a cellular model for the study. The actions of sophorolipids in acid form A, sophorolipids in lactone form B, and lactic acid on the detachment of corneocytes of the selected cellular model were tested in vitro in parallel. In each experiment, the mean difference T60-T0 (corneocytes/ml), as well as the proportion of detached corneocytes, expressed in percentage relative to the negative test (%/TN), were determined.
Cellular viability, measured with the Neutral Red test, is expressed relative to the negative test (%).

[2] = test system: keratinocyte culture (detachment of corneocytes); test: Desquamating test, detachment of corneocytes in vitro; type: cell-based
Source text: Variation coefficient CV is obtained as follows: [formula]
Actually, the therapeutic applications incidentally involve cosmetic applications.

[3] = test system: macrophages (Interleukin-1 release); test: IL-1 released by macrophages (Elisa sandwich test on culture supernatant); type: cell-based; settings: 25 μg/ml
Source text: It is known, however, that several factors such as cytokines and growth factors play important roles in the process of wound healing. These factors include the epidermal growth factor (EGF), the fibroblastic growth factor (FGF), the platelet-derived growth factor (PDGF), and the beta transforming growth factor (beta-TGF). In addition to these factors, cytokines such as interleukin-l (IL-1), the tumor necrosis factor (TNF), and interleukin-6 (IL-6) also play important roles in the process of wound healing. These factors act by different methods, in combination with other materials, to induce proliferation of dermal and epidermal elements such as fibroblasts. […] Actually, IL-1 affects the differentiation, growth, and activity of many cellular types in the organism. Within the immune system, IL-1 acts as a second signal that is necessary to activate the IL-2 circuit by the activated T lymphocytes. It also potentiates the action of other cytokines. It contributes to the differentiation of B lymphocytes and to their production of immunoglobulins. It modifies vascular permeability by the release of mediators by the endothelial cells and induces the appearance at their surface of a factor that has a procoagulating activity. Owing to its proliferative effect on the fibroblasts, it intervenes in the repair phase.
To show the effect of activating macrophages by sophorolipids, an Elisa sandwich test was carried out on the supernatant of a culture medium that contained macrophages. […] A negative test was also used.

| Compound | viability at 1000 µM [1] [%] | T60-T0 mean difference ([2]; 10^-3M, p less than 0.001) [corneocytes/ml] | activity at 1000 µM ([2]; Keratinocyte, 10^-3M, read-out: %/TN, proportion of detached corneocytes relative to the negative test) [%] | EC (2-fold corneocyte release) ([2]; Keratinocyte, read-out: T200 (concentration which causes a release of corneocytes twice that observed with the negative test)) [µM] | Concentrations IL-1 released by macrophages [3] [pg/mL] |
| --- | --- | --- | --- | --- | --- |
| CC(O)C(=O)O (centres unmarked) [Lactic acid, lactic acid, reference compound] | 99.5 | 2500 | 214 | ~1000 |  |
| Lipopolysaccharides [reference compound] |  |  |  |  | 421.61 |
